In PMC7728344, “Pharmacokinetic Characterization of (Poly)phenolic Metabolites in Human Plasma and Urine after Acute and Short-Term Daily Consumption of Mango Pulp” (Molecules, 2020):
Where two headings read alike, the source gives them in different places. Each block holds one compound with its values, some of them ahead of it.

Experiments:
clinical = format: in vivo, human; set-up: AUC0–24h: concentration or dose not given beside the values
Procedure: SPE procedure was conducted to extract and concentrate the (poly)phenolic compounds and their metabolites from the plasma samples. Briefly, plasma samples were thawed on ice and 500 µL plasma was diluted with 1.5 mL of 0.1% formic acid in water with addition of internal standards (2-methylhippuric acid (2 ng/mL), phloridizin (1 ng/mL)) before being loaded on preconditioned SPE cartridges. The cartridges were washed with 0.1% formic acid in water (1 mL) after loading with plasma samples. The elution of the compounds was achieved by 0.1% formic acid in methanol (1 mL) and the eluent was dried under nitrogen gas at room temperature. […] Supernatant was collected in amber HPLC vials before analysis.
The absorption and elimination of 11 major mango metabolites over 24 h was determined after MP, MP + VC, and VC intake. The plasma concentration/area at each time point was determined by the mean of 13 subjects. The time vs. concentration curves and the time vs. area curves were created using GraphPad Prism (version 8.2.1). […] Tmax is the time (h) when Cmax was achieved. Wilcoxon signed-rank test was used for Tmax analysis due to non-normal distribution. Area under the plasma concentration time curve (AUC0−24h, nmol·h/L) was calculated by the linear trapezoidal method using Microsoft Excel 2013, version 15 [63]. […]

[1] = Concentration of (poly)phenolic metabolites in fasting urine at baseline, 24 h after single MP beverage and 15th day after 14-day MP intake (UHPLC-QQQ-MS); conditions: for Concentration in fasting urine, Mean ± std Error, 0 h (Fasting) / Concentration in fasting urine, Mean ± std Error, 15 Days (Fasting) / Concentration in fasting urine, Mean ± std Error, 24 h (Fasting): in vivo; for concentration at 15 day / concentration at 24 h / concentration at 0 h: human, urine, oral; for concentration at 24 h / concentration at 0 h: 500 g
From the text: The acute trial was a randomized, 3 arm, within-subject crossover study design (Figure 5A). The trial initiated with 3 days of food record collection to assess background (pre-study) dietary intake followed by counseling to adhere to a diet devoid of mango or its parts and relatively low in polyphenol-rich beverages/foods, which was maintained throughout the duration of the trial. […] In general, subjects were encouraged to follow their “usual” diet with the exception of foods/beverages that may interfere with the outcomes of the study. Food intake diaries and, phone call and email reminders helped subjects maintain compliance throughout the study period. After an initial 7-day run-in period on the limited polyphenol diet, subjects were assigned to a randomization sequence providing 1 of 3 study test beverages (recipes provided in Appendix A, Table A3) on three separate days in a random order: MP (500 g), MP (500 g) + VC (100 mg) or VC (100 mg) beverages. On each study day subjects arrived fasted and well hydrated. After standard admission procedures were completed (e.g., review of compliance with dietary requirements for 3 days prior to study day, dinner meal intake, usual sleep patterns), a catheter was placed by a registered nurse in subjects’ non-dominant arm and a fasting/baseline blood sample was collected (0 h). Subjects were provided with a standard breakfast meal 2 h after the study beverages. The breakfast meal was comprised of a buttermilk biscuit with butter and jelly, and scrambled egg white with shredded white cheddar cheese. After the 6 h blood collection, subjects ate a low polyphenol lunch consisting of dry roasted peanuts and fresh peeled cucumber with ranch dressing (Appendix A, Table A3).
Spot urine samples were collected in urine collection cups, immediately placed on ice and then aliquoted into individual cryovials. All the samples were stored at −80 °C until analysis.
A 14-day feeding trial was conducted with the MP only to study the effect of repetitive intake of MP on (poly)phenolic metabolite profiles. Upon completion of the acute trial, subjects were instructed to continue on the low polyphenolic diet for 2 weeks while consuming MP beverages (provided by CNRC) daily in the morning (250 g MP + 50 g water) and evening (250 g MP + 50 g water). On day 14, subjects consumed both beverages (500 g of MP in total) in the morning and reported to the CNRC on the 15th day after an overnight fast to provide a fasting blood and urine sample (Figure 5B). Blood and urine samples were collected as described above and stored at −80 °C until analysis.
The supernatant was collected and filtered through 0.2 µm polypropylene syringe filter before HPLC analysis.
The ESI conditions were the same as those used in the UHPLC-Q-TOF analysis. The quantification of the compounds was conducted by multiple-reaction monitoring (MRM) transitions. Spectra were recorded in both positive- and negative-ion mode with capillary voltage of 4500 V and drying gas flow rate of 9 L/min at 200 °C. The sheath gas temperature and flow rate were 300 °C and 11 L/min, respectively. Standards were optimized for collision energies, fragmentor voltages and MRM transitions using Mass Hunter Optimizer. The MRM transition for metabolites were created based on the results from UHPLC-Q-TOF-MS. Standards for plasma analysis were prepared in blank plasma (charcoal-stripped human plasma obtained from Bioreclamation IVT) for matrix match and for urine analysis were prepared in SMP.
The flow rate was maintained at 0.4 mL/min and the injection volume was 5 μL. The mobile phase consisted of acidified water (0.1% formic acid) (A) and acidified acetonitrile (0.1% formic acid) (B). The gradient for the separation of compounds was as follows: 5 to 5% B from 0 to 1 min; 10% B at 3 min; 15% B at 7 min; 15% B at 9 min; 20% B at 10 min; 20% B at 11 min; 25% B at 12 min; 30% B at 13 min; 30% B at 14 min; 95% B at 15 min; and back to 5% B at 16 min.

[2] = human plasma, 0−24 h, after VC (vitamin C 100 mg) beverage, mean ± standard error, read-out: Cmax
[3] = human plasma, after VC beverage, mean ± standard error

Compound: COc1cc(/C=C/C(=O)O)ccc1O [Ferulic acid]
Concentration in fasting urine, Mean ± std Error, 0 h (Fasting) [1]: 0.5 ± 0.1 µM
Concentration in fasting urine, Mean ± std Error, 15 Days (Fasting) [1]: 0.4 ± 0.1 µM
Concentration in fasting urine, Mean ± std Error, 24 h (Fasting) [1]: 0.4 ± 0.1 µM

Compound: O=C(O)CNC(=O)c1ccccc1 [Hippuric acid]
concentration at 15 day [1]: 2020 ± 242 µM
concentration at 24 h [1]: 3710 ± 582 µM

Compound: COC(=O)CNC(=O)c1ccccc1 [Methyl hippurate]
Concentration in fasting urine, Mean ± std Error, 0 h (Fasting) [1]: 2.8 ± 2.3 µM
Concentration in fasting urine, Mean ± std Error, 15 Days (Fasting) [1]: 6.3 ± 1.7 µM
Concentration in fasting urine, Mean ± std Error, 24 h (Fasting) [1]: 7.8 ± 2.1 µM

Compound: COc1cc(C(=O)O)cc(OC)c1O [Syringic acid]
concentration at 15 day [1]: 1.7 ± 0.2 µM
concentration at 0 h [1]: 3.6 ± 0.4 µM
concentration at 24 h [1]: 5.9 ± 0.8 µM

Compound: COc1cc(C(=O)O)ccc1O [Vanillic acid]
concentration at 15 day [1]: 4.1 ± 1 µM
concentration at 0 h [1]: 4.9 ± 0.9 µM
concentration at 24 h [1]: 4.4 ± 0.7 µM

Compound: O=C(O)/C=C/c1cccc(O)c1 [m-Coumaric acid]
Concentration in fasting urine, Mean ± std Error, 0 h (Fasting) [1]: 0.8 ± 0.1 µM
Concentration in fasting urine, Mean ± std Error, 15 Days (Fasting) [1]: 0.7 ± 0.1 µM
Concentration in fasting urine, Mean ± std Error, 24 h (Fasting) [1]: 0.7 ± 0.1 µM

Compound: O=C(O)/C=C/c1ccccc1O [o-Coumaric acid]
concentration at 15 day [1]: 0.5 ± 0.1 µM
concentration at 0 h [1]: 0.9 ± 0.1 µM
concentration at 24 h [1]: 0.9 µM

Compound: O=C(O)C=Cc1ccc(O)cc1 [p-Coumaric acid]
concentration at 15 day [1]: 0.3 µM
concentration at 0 h [1]: 0.5 ± 0.1 µM
concentration at 24 h [1]: 0.4 ± 0.1 µM

Other lines, results leading:

time within which cleared from the bloodstream (clinical; after mango intake): 6 to 8 h
content in plasma (as observed from areas) after MP and MP + VC vs. VC beverage alone (clinical; area vs. time profile 0−24 h): significantly higher
plasma concentration relative to limit of quantitation (clinical; human plasma after test beverages intake): below the LOQ
Tmax (clinical; human, plasma, oral, 500 g, after mango intake, read-out: time to reach maximum concentration/area in plasma): 1 to 2 h
difference in plasma concentrations/areas after MP + VC beverage compared to MP beverage alone (clinical; increase observed, statistical outcome): not statistically significant
Compound: O=c1c2cc(O)c(O)cc2oc2cc(O)c([C@@H]3O[C@H](CO)[C@@H](O)[C@H](O)[C@H]3O)c(O)c12 [Compound C11, mangiferin]

Cmax (clinical; [2]): 0.0048 ± 0.0007 µM
AUC0–24h (clinical; [3]): 0.0259 ± 0.0019 µM·h
AUC0–24h (clinical; human, in vivo): 0.1611 ± 0.0136 µM·h
Cmax (clinical; human, in vivo): 0.0545 ± 0.0049 µM
Tmax (clinical; human, in vivo): 2.2 ± 0.3 h
difference in plasma concentrations/areas after MP + VC beverage compared to MP beverage alone (clinical; in vivo): not statistically significant
Compound: methylgallic acid [Compound C3]

Cmax (clinical; [2]): 0.0063 ± 0.0016 µM
AUC0–24h (clinical; [3]): 0.0247 ± 0.003 µM·h
AUC0–24h (clinical; human, in vivo): 1.6558 ± 0.274 µM·h
Cmax (clinical; human, in vivo): 0.824 ± 0.131 µM
Tmax (clinical; human, in vivo): 2.2 ± 0.2 h
difference in plasma concentrations/areas after MP + VC beverage compared to MP beverage alone (clinical; in vivo): not statistically significant
Compound: methylgallic acid sulfate [Compound C4]

Tmax (clinical; [3]): 8.0 ± 2.3 h
Compound: methylpyrogallol glucuronide [Compound C9]

Cmax (clinical; [2]): 0.0358 ± 0.0095 µM
AUC0–24h (clinical; [3]): 0.1295 ± 0.036 µM·h
Compound: methylpyrogallol sulfate isomer 1 [Compound C6]

Cmax (clinical; [2]): 0.0766 ± 0.0249 µM
AUC0–24h (clinical; [3]): 0.2166 ± 0.0545 µM·h
Compound: methylpyrogallol sulfate isomer 2 [Compound C7]
